IC50 and inhibition in vivo data for 32 compounds are collected here from US7964613B2 (Asahi Kasei Pharma Corporation, priority 2007, dated 2011).

Molecules are shown by their SMILES. Where only a bound is given, the exact number is not on record here.

For one assay, the target named is T1, human ROCK1 (Homo sapiens, UniProt Q13464).
T1 construct: His tag (N); host or cells: insect cells (Sf9)
Description: Measurement of Rho kinase inhibitory activity (ELISA of MBS phosphorylation). The assay is classed as biochemical. The settings on record: human ROCK1, MBS substrate, 100 μM ATP, 30° C. for 10 minutes. As to the method:
In this test, human ROCK1 was used as Rho kinase, MBS (myosin binding subunit, subunit constituting myosin phosphatase) was used as the substrate of Rho kinase, and an anti-phosphorylated MBS antibody was used for detection of phosphorylation. The activity for inhibiting Rho kinase was determined by measuring phosphorylation of MBS by the Rho kinase by ELISA in the presence of an appropriately diluted test compound. As the Rho kinase used, a recombinant protein (N-terminal His-tagged recombinant human ROCK1 residues (1Met-[…])) was used, which was produced in insect cells (Sf9) using a sequence (1-727), of which activity was confirmed in the paper of Ishizaki et al. (Ishizaki, T. et al., FEBS Letters, 404, pp 118-124, 1997), based on the sequence of human ROCK1 (p 160 ROCK) described in the report of Ishizaki et al. (Ishizaki, T. et al., EMBO J., 15, pp 1885-1893, 1996). Further, as the MBS protein and anti-phosphorylated MBS antibody, those prepared according to the method described in the paper of Ito et al. (Ito, K et al., J. Physiol., 546, pp 823-836, 2003) were used.
A solution of MBS (Asahi Kasei Pharma, lot No, 040814n7-10) diluted with PBS to an appropriate concentration was added to an ELISA plate (Maxisorp, Nunc), and left, stand overnight at 4° C., and then the wells were washed twice with a washing solution (WB, washing buffer, 0.1% Tween 20/PBS). To the wells were added 1% bovine serum albumin (Sigma)/PBS, and left for 1 to 3 hours, and then the wells were washed 5 times with WB to prepare a substrate-immobilized plate. Onto this plate, a reaction mixture (5 mM MgSO4/0.1 M NaCl/20 mM HEPES (pH 7.5)/100 μM ATP/5 mM DTT), a test compound, and appropriately diluted human ROCK1 (Asahi Kasei Pharma, lot No, 030126.120-22) were added, and then reacted at 30° C. for 10 minutes. Then, 0.2 M EDTA (pH 7.5) was added to terminate the reaction, and the wells were washed 5 times with WB. A rabbit anti-phosphorylated MBS antibody solution (Asahi Kasei Pharma, lot No, 122676431) diluted 10,000 times with WB containing 1% bovine serum albumin was added to the wells, and after the reaction for 1 hour, the wells were washed 5 times with WB. Goat anti-rabbit IgG-HRP (Zymed) diluted 1,000 times with WB containing 1% bovine serum albumin was added to the wells as the secondary detection antibody and the mixture was reacted for 1 hour, and then the wells were washed 5 times with WB. An OPD (o-phenylenediamine) solution (1 mg/ml OPD, Sigma), 5.1 g/l of citric acid monohydrate, and 18.4 g/l of Na2HPO4.12H2O were added to the wells to develop color, […] was added 5 minutes later to terminate the color development, and absorbance was measured at 490 nm.
The inhibition ratio was calculated as follows. Inhibition ratio(%)=[…]
Further, the inhibition ratio was calculated with changing the concentration of the test compound, and a compound concentration providing an inhibition ratio of 50% was obtained as IC50.
For orientation: In an ELISA, binding on a coated surface is turned into a signal by an enzyme label.

Assay [1] concerns rabbit normal intraocular pressure. Briefly: Intraocular pressure reducing action. Particulars: Oryctolagus cuniculus, topical; 3 mM aqueous solution, 50 μl to the left eye; max IOP reduction (2, 4, 6 hours) / value immediately before administration; read-out: intraocular pressure reducing degree. The assay is classed as in vivo, Japanese white rabbit. As to the method:
A Japanese white rabbit having a body weight of about 2 kg was placed in a positioner and naturalized for one week before the experiment. An opthalmologic local anesthesant (Benoxil) was administered to both eyes, and then intraocular pressure was measured by using a tonometer (Classic 30, Solan). A 3 mM aqueous solution of a test compound was administered in a volume of 50 μl to the left eye, and the right eye was not treated (control eye). The intraocular pressure values were measured for the left and right eyes immediately before, and 2, 4 and 6 hours after the administration of the aqueous solution of the test compound, and the difference of the measured values for the left and right eyes was considered an intraocular pressure reduction value of the test medicament at each measurement time. The largest difference of the values for the left and right eyes among the measured values at the measurement times (after 2, 4 and 6 hours) was considered the maximum intraocular pressure reduction value (max ? IOP) of each test medicament. The intraocular pressure reducing degree representing the intraocular pressure reducing action of each test medicament was calculated according to the following formula. Since rabbits show significant daily variation of intraocular pressure, daily variation is added when change of intraocular pressure is measured over time, and the intraocular pressure reducing action may be overestimated. Therefore, we used this calculation method of intraocular pressure reduction value in order to minimize the influence of the variation. Intraocular pressure reducing degree(%)=(max ? IOP/Intraocular pressure value immediately before administration)×100

T1 sequence (Q13464 1-727): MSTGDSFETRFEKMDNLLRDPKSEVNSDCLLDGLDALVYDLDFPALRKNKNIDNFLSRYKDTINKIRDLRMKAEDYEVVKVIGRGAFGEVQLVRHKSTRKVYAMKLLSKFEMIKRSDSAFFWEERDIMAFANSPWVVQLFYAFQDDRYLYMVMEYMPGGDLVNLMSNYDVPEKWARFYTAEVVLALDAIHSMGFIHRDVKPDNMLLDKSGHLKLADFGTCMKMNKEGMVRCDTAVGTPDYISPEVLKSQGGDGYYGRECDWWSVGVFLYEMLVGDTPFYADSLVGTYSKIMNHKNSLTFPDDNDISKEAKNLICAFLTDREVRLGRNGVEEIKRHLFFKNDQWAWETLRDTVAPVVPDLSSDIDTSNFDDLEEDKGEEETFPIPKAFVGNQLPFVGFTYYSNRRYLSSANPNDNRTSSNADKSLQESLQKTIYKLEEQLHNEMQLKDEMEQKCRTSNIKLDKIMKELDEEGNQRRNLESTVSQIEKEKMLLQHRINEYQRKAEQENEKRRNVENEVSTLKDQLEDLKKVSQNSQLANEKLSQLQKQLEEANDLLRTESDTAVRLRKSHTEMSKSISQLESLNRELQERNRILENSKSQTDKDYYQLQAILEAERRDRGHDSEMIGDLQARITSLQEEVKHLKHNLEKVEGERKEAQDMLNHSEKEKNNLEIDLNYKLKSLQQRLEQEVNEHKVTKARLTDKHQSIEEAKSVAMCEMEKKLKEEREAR

For the compound `O=S(=O)(c1cccc2cncc(Br)c12)N1CC[C@H](NCc2ccoc2)C1` [Example 1-14], the IC50 (commonly the midpoint of a concentration-inhibition curve) against human ROCK1 was less than 1 µM. The inhibition in vivo at 3000 µM in assay [1] was 5 to 10%.

In turn, `Cc1nc(CN[C@H]2CCN(S(=O)(=O)c3cccc4cncc(Br)c34)C2)c[nH]1` [Example 1-19] had an IC50 on human ROCK1 of 1 to 3 µM. Further, the inhibition in vivo at 3000 µM in assay [1] fell in the range of 5 to 10%.

For the compound `Cn1cccc1CN[C@H]1CCN(S(=O)(=O)c2cccc3cncc(Br)c23)C1` [Example 1-20], at human ROCK1, the IC50 is less than 1 µM. In addition, in assay [1], the inhibition in vivo at 3000 µM is 10 to 20%.

For the compound `NCCN[C@H]1CCN(S(=O)(=O)c2cccc3cncc(Br)c23)C1` [Example 1-31], the IC50 at human ROCK1 was less than 1 µM. In addition, the inhibition in vivo at 3000 µM in assay [1] lay in the range of 10 to 20%.

In the case of `N[C@H]1CCN(S(=O)(=O)c2cccc3c(O)ncc(Br)c23)C1` [Example 7-1, (S)-3-Amino-1-(1-hydroxy-4-bromo-5-isoquinolinesulfonyl)pyrrolidine], the concentration for half-maximal inhibition (IC50) at human ROCK1 is less than 1 µM. Besides, in assay [1], the inhibition in vivo at 3000 µM was not below 20%.

The compound `Cc1cncc2cccc(S(=O)(=O)N3CC[C@@H](N)C3)c12` [Example 8-2, (R)-3-Amino-1-(4-methyl-5-isoquinolinesulfonyl)pyrrolidine] showed an IC50 against human ROCK1 of less than 1 µM. Moreover, the inhibition in vivo at 3000 µM in assay [1] was not below 20%.

`CCN[C@H]1CCN(S(=O)(=O)c2cccc3cncc(C)c23)C1` [Example 8-4] gave an IC50 at human ROCK1 of less than 1 µM. For the same compound, in assay [1], the inhibition in vivo at 3000 µM was 10 to 20%.

In the case of `Cc1cncc2cccc(S(=O)(=O)N3CC[C@H](NCc4cccn4C)C3)c12` [Example 8-21], the IC50 against human ROCK1 is less than 1 µM. For the same compound, the inhibition in vivo at 3000 µM in assay [1] is 10 to 20%.

Compound `Cc1cncc2cccc(S(=O)(=O)N3CC[C@H](NCC4CC4)C3)c12` [Example 8-26] showed a half-inhibitory concentration (IC50) on human ROCK1 of less than 1 µM. Moreover, the inhibition in vivo at 3000 µM in assay [1] fell in the range of 5 to 10%.

`Cc1cncc2cccc(S(=O)(=O)N3CC[C@H](NC(C)C)C3)c12` [Example 8-27] yielded a half-maximal inhibitory concentration (IC50) against human ROCK1 of 1 to 3 µM. In addition, the inhibition in vivo at 3000 µM in assay [1] was in the range of 10 to 20%.

Consider `Cc1cncc2cccc(S(=O)(=O)N3CC[C@H](NC4CCC4)C3)c12` [Example 8-28], for which, at human ROCK1, the half-maximal inhibitory concentration (IC50) is less than 1 µM. Further, in assay [1], the inhibition in vivo at 3000 µM lay within 5 to 10%.

Turning to `Cc1cncc2cccc(S(=O)(=O)N3CC[C@H](NC4CCCC4)C3)c12` [Example 8-29], on human ROCK1, the IC50 is 1 to 3 µM. Further, the inhibition in vivo at 3000 µM in assay [1] lay within 5 to 10%.

For the compound `Cc1cncc2cccc(S(=O)(=O)N3CC[C@H](NC4CCCCC4)C3)c12` [Example 8-30], the 50% inhibitory concentration (IC50) on human ROCK1 is 1 to 3 µM. The inhibition in vivo at 3000 µM in assay [1] lay in the range of 5 to 10%.

Compound `Cc1cncc2cccc(S(=O)(=O)N3CC[C@H](NC4CCOCC4)C3)c12` [Example 8-31] returned an IC50 at human ROCK1 of 1 to 3 µM. Also, the inhibition in vivo at 3000 µM in assay [1] was 10 to 20%.

Compound `Cc1cncc2cccc(S(=O)(=O)N3CC[C@H](NCCN)C3)c12` [Example 8-32] yielded an IC50 against human ROCK1 of less than 1 µM. Also, the inhibition in vivo at 3000 µM in assay [1] lay within 5 to 10%.

Take `C=CCN[C@H]1CCN(S(=O)(=O)c2cccc3cncc(C)c23)C1` [Example 8-34]: the IC50 against human ROCK1 is less than 1 µM. Further, in assay [1], the inhibition in vivo at 3000 µM is 5 to 10%.

In turn, `Cc1cncc2cccc(S(=O)(=O)N3CC[C@H](NCCc4ccccc4)C3)c12` [Example 8-37] returned a 50% inhibitory concentration (IC50) on human ROCK1 of less than 1 µM. The inhibition in vivo at 3000 µM in assay [1] lay within 5 to 10%.

For `C=Cc1cncc2cccc(S(=O)(=O)N3CC[C@H](N)C3)c12` [Example 9-1, (S)-3-Amino-1-(4-vinyl-5-isoquinolinesulfonyl)pyrrolidine], the IC50 on human ROCK1 is less than 1 µM. For the same compound, in assay [1], the inhibition in vivo at 3000 µM was not below 20%.

As for `C#Cc1cncc2cccc(S(=O)(=O)N3CC[C@H](NCc4ccc(OC)cc4)C3)c12` [Example 10-7], the concentration for half-maximal inhibition (IC50) at human ROCK1 is less than 1 µM. Moreover, the inhibition in vivo at 3000 µM in assay [1] lay within 10 to 20%.

With `Nc1cncc2cccc(S(=O)(=O)N3CC[C@H](N)C3)c12` [Example 12-1, (S)-3-Amino-1-(4-amino-5-isoquinolinesulfonyl)pyrrolidine], the IC50 against human ROCK1 was 1 to 3 µM. Further, the inhibition in vivo at 3000 µM in assay [1] fell in the range of 10 to 20%.

`COc1cncc2cccc(S(=O)(=O)N3CC[C@H](N)C3)c12` [Example 15-1, (S)-3-Amino-1-(4-methoxy-5-isoquinolinesulfonyl)pyrrolidine] gave an IC50 against human ROCK1 of 1 to 3 µM. Further, the inhibition in vivo at 3000 µM in assay [1] lay within 5 to 10%.

Consider `COc1ccc(CN[C@H]2CCN(S(=O)(=O)c3cccc4cncc(F)c34)C2)cc1` [Example 18-7], for which the IC50 against human ROCK1 was less than 1 µM. Also, the inhibition in vivo at 3000 µM in assay [1] was 5 to 10%.

Turning to `N[C@@H]1CCN(S(=O)(=O)c2cccc3cncc(Cl)c23)C1` [Example 19-2, (R)-3-Amino-1-(4-chloro-5-isoquinolinesulfonyl)pyrrolidine], the IC50 on human ROCK1 is less than 1 µM. Moreover, the inhibition in vivo at 3000 µM in assay [1] is not below 20%.

On human ROCK1, `NCCN[C@H]1CCN(S(=O)(=O)c2cccc3cncc(Cl)c23)C1` [Example 19-32] came in with an IC50 of 1 to 3 µM. Also, in assay [1], the inhibition in vivo at 3000 µM is not below 20%.

`O=S(=O)(c1cccc2cncc(Cl)c12)N1CC[C@H](NCc2ccc3c(c2)OCCO3)C1` [Example 19-40]: at human ROCK1, the IC50 was less than 1 µM. Moreover, the inhibition in vivo at 3000 µM in assay [1] lay in the range of 5 to 10%.

`N[C@H]1CCCN(S(=O)(=O)c2cccc3cncc(Cl)c23)C1` [Example 21-1, (S)-3-Amino-1-(4-chloro-5-isoquinolinesulfonyl)piperidine] showed an IC50 against human ROCK1 of 1 to 3 µM. In addition, the inhibition in vivo at 3000 µM in assay [1] is not below 20%.

`N[C@@H]1CCCN(S(=O)(=O)c2cccc3cncc(Cl)c23)C1` [Example 21-2, (R)-3-Amino-1-(4-chloro-5-isoquinolinesulfonyl)piperidine]: the IC50 on human ROCK1 was in the range of 1 to 3 µM. For the same compound, in assay [1], the inhibition in vivo at 3000 µM was 10 to 20%.

For the compound `Cc1cncc2cccc(S(=O)(=O)N3CCC[C@H](N)C3)c12` [Example 22-1, (S)-3-Amino-1-(4-methyl-5-isoquinolinesulfonyl)piperidine], the IC50 against human ROCK1 is less than 1 µM. For the same compound, the inhibition in vivo at 3000 µM in assay [1] was in the range of 10 to 20%.

Regarding `Cc1cncc2cccc(S(=O)(=O)N3CCC[C@@H](N)C3)c12` [Example 22-2, (R)-3-Amino-1-(4-methyl-5-isoquinolinesulfonyl)piperidine], on human ROCK1, the IC50 is less than 1 µM. The inhibition in vivo at 3000 µM in assay [1] was in the range of 10 to 20%.

In the case of `CCc1cncc2cccc(S(=O)(=O)N3CC[C@H](N)C3)c12` [Example 23-1, (S)-3-Amino-1-(4-ethyl-5-isoquinolinesulfonyl)pyrrolidine], the 50% inhibitory concentration (IC50) against human ROCK1 was less than 1 µM. Further, in assay [1], the inhibition in vivo at 3000 µM lay in the range of 10 to 20%.

In turn, `Cc1cnc(O)c2cccc(S(=O)(=O)N3CC[C@H](N)C3)c12` [Example 25-1, (S)-3-Amino-1-(1-hydroxy-4-methyl-5-isoquinolinesulfonyl)pyrrolidine] showed an IC50 against human ROCK1 of less than 1 µM. Also, the inhibition in vivo at 3000 µM in assay [1] lay in the range of 10 to 20%.

On human ROCK1, `Cc1cncc2cccc(S(=O)(=O)N3CC(N)C3)c12` [Example 26, 3-Amino-1-(4-methyl-5-isoquinolinesulfonyl)azetidine] registered an IC50 of less than 1 µM. For the same compound, the inhibition in vivo at 3000 µM in assay [1] fell in the range of 5 to 10%.
